Values of other authors in US20090012088A1 (priority 2005, published 2009).

What was measured:
34I cells = conditions: cited from earlier work
PARG [1] = target: T1, PARG (Homo sapiens, UniProt Q86W56); conditions: tannins; read-out: in vitro IC50 for PARG; cited from earlier work
[2] = tested on: rat model of focal cerebral ischemia; conditions: cited from earlier work
PARG [3] = target: PARG (Bos taurus, UniProt O02776); conditions: cited from earlier work
[4] = tested on: human neuroblastoma cells; conditions: cited from earlier work
PARG [5] = target: T1, PARG; conditions: cited from earlier work

T1 sequence (Q86W56 whole entry, species assumed): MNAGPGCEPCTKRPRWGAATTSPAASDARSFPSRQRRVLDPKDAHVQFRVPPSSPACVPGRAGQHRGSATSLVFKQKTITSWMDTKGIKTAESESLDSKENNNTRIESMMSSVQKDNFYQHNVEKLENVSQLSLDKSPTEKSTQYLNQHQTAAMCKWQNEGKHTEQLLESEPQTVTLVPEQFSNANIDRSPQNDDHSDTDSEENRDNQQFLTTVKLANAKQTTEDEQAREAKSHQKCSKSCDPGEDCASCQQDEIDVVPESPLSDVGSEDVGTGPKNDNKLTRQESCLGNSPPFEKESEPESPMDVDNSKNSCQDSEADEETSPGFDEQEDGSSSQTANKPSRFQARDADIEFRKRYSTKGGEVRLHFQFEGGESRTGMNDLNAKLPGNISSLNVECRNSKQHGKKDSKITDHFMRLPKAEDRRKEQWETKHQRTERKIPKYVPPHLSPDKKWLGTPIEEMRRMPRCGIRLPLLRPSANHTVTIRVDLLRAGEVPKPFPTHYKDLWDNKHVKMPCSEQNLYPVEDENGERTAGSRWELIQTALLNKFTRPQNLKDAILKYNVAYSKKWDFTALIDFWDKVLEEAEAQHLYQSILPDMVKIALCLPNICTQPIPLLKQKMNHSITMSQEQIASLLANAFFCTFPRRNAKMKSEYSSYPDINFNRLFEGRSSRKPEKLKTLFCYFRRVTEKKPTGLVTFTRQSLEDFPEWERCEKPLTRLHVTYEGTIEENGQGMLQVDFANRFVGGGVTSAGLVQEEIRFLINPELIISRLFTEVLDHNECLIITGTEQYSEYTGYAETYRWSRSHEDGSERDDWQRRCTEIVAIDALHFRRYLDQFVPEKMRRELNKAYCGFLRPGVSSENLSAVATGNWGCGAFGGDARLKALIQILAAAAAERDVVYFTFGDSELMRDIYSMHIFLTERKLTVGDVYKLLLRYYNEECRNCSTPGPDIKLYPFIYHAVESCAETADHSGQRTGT
PARG (Bos taurus, UniProt O02776), sequence (O02776 whole entry): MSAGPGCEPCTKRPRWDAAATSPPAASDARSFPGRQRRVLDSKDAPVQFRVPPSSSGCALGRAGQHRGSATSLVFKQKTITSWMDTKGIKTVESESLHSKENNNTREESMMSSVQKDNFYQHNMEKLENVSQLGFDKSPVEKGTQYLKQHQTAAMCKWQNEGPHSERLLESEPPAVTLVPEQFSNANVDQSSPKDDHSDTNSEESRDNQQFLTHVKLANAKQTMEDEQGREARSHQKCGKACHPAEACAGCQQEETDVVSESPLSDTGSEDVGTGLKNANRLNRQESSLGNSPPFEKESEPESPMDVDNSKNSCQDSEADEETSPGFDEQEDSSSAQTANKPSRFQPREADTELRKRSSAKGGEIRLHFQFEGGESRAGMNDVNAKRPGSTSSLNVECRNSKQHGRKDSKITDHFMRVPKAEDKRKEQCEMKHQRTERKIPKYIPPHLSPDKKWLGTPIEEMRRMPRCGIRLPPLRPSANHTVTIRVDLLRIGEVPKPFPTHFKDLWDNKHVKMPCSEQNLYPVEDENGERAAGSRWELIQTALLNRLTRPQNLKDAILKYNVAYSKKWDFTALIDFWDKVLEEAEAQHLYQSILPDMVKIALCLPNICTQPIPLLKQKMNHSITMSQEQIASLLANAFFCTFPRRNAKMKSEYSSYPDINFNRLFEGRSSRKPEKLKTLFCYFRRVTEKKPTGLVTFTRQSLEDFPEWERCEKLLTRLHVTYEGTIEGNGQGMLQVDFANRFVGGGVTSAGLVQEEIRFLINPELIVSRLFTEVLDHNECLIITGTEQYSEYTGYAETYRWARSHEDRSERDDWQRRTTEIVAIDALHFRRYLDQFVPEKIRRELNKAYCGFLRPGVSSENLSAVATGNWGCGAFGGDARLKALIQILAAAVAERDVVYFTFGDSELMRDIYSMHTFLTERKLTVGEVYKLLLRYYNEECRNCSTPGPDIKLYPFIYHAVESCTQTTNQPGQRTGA

## O=C(OC[C@H]1O[C@@H](OC(=O)c2cc(O)c(O)c(O)c2)[C@@H]2OC(=O)c3cc(O)c(O)c(O)c3-c3c(cc(O)c(O)c3O)C(=O)O[C@H]2[C@@H]1OC(=O)c1cc(O)c(O)c(O)c1Oc1cc2c(c(O)c1O)-c1c(cc(O)c(O)c1O)C(=O)O[C@H]1[C@@H]3OC(=O)c4cc(Oc5c(C(=O)O[C@H]6[C@@H]7OC(=O)c8cc(O)c(O)c(O)c8-c8c(cc(O)c(O)c8O)C(=O)O[C@H]7[C@H](OC(=O)c7cc(O)c(O)c(O)c7)O[C@@H]6COC(=O)c6cc(O)c(O)c(O)c6)cc(O)c(O)c5O)c(O)c(O)c4-c4c(cc(O)c(O)c4O)C(=O)O[C@H]3[C@H](OC(=O)c3cc(O)c(O)c(O)c3)O[C@@H]1COC2=O)c1cc(O)c(O)c(O)c1 [nobotanin E]
34I cells
  Inhibition of PAR catabolism in intact cells: little inhibitory effect

## O=C(OCC1OC(OC(=O)c2cc(O)c(O)c(O)c2)C2OC(=O)c3cc(O)c(O)c(O)c3-c3c(cc(O)c(O)c3O)C(=O)OC2C1OC(=O)c1cc(O)c(O)c(O)c1Oc1cc2c(c(O)c1O)-c1c(cc(O)c(O)c1O)C(=O)OC1C(COC2=O)OC(OC(=O)c2cc(O)c(O)c(O)c2)C2OC(=O)c3cc(O)c(O)c(O)c3-c3c(cc(Oc4c(C(=O)OC5C(COC(=O)c6cc(O)c(O)c(O)c6)OC(OC(=O)c6cc(O)c(O)c(O)c6)C6OC(=O)c7cc(O)c(O)c(O)c7-c7c(cc(Oc8c(C(=O)OC9OC%10COC(=O)c%11cc(O)c(O)c(O)c%11-c%11c(cc(O)c(O)c%11O)C(=O)OC%10C%10OC(=O)c%11cc(O)c(O)c(O)c%11-c%11c(cc(O)c(O)c%11O)C(=O)OC9%10)cc(O)c(O)c8O)c(O)c7O)C(=O)OC56)cc(O)c(O)c4O)c(O)c3O)C(=O)OC12)c1cc(O)c(O)c(O)c1 (stereo not shown) [nobotanin K]
PARG [1]
  IC50: 0.44 µM
34I cells
  Inhibition of PAR catabolism in intact cells: little inhibitory effect

## O=C(NCCCc1ccccc1)c1ccc2c(c1)C(=O)c1cc(C(=O)NCCCc3ccccc3)ccc1-2 [GPI 16552, 2,7-Bis[N-(3-phenyl-propyl)carbamoyl]-9-Oxo-9H-fluorene]
[2]; 30-minute pre-ischemia or 1- or 2-hour post-ischemia treatment
  Reduction of total infarct volume: 47-53%
[2]; rat, in vivo
  Protection in cortical areas: 43-59%
  Protection in subcortical areas: 28-40%

## adenosine diphosphate (hydroxymethyl)pyrrolidinediol [ADP-HPD]
PARG [3]
  IC50 lower than that of ADP-ribose: 1000 fold

## C=CCN1CCc2nc(N)sc2CC1 [talipexole]
[4]
  Concentration required for protection: 1 mM

## CCC(C)CC1CCC(O)(C(C)(O)C(=O)NC2C(=O)N3NCCCC3C(=O)N(O)C(C)C(=O)NCC(=O)N3NCCCC3C(=O)N(O)C(C)C(=O)OC2C(C)C)OC1C (stereo not shown) [PD 124,966]
PARG [5]
  IC50 for PARG: 40 µg/mL

## pargamicin
PARG [5]
  IC50 for PARG: 28 µg/mL

## nobotanin B
PARG [1]
  IC50: 4.8 µM
34I cells
  Inhibition of PAR catabolism in intact cells: concentration-dependent inhibition of PAR catabolism

## Nc1ncnc2c1ncn2[C@@H]1O[C@H](COP(=O)(O)OP(=O)(O)OC[C@H]2OC(O)[C@H](O)[C@@H]2O)[C@@H](O)[C@H]1O (stereo partly shown) [ADP-ribose]
PARG [3]; substrate analogues, FIG. 9
  IC50: 120 µM
